# Data taken from ChEMBL document CHEMBL3044945, “Synthesis of 1,3,5-trisubstituted pyrazoline nucleus containing compounds and screening for antimicrobial activity” (2012).
# Key:
# Format in all cases: functional
# Escherichia coli [1] = assay: Antibacterial activity against Escherichia coli MTCC 1573 at 750 ug/ml after 48 hr by cup-plate method; settings: MTCC 1573, 48 h, read-out: DIZ
# Staphylococcus aureus [2] = assay: Antibacterial activity against Staphylococcus aureus MTCC 1430 at 1000 ug/ml after 48 hr by cup-plate method; settings: MTCC 1430, 48 h, read-out: DIZ
# Penicillium chrysogenum [3] = assay: Antifungal activity against Penicillium chrysogenum MTCC 161 at 1250 ug/ml after 48 hr by cup-plate method; settings: MTCC 161, 48 h, read-out: DIZ
# Penicillium chrysogenum [4] = assay: Antifungal activity against Penicillium chrysogenum MTCC 161 after 24 to 48 hr by tube dilution method
# Escherichia coli [5] = assay: Antibacterial activity against Escherichia coli MTCC 1573 at 1250 ug/ml after 48 hr by cup-plate method; settings: MTCC 1573, 48 h, read-out: DIZ
# Staphylococcus aureus [6] = assay: Antibacterial activity against Staphylococcus aureus MTCC 1430 at 750 ug/ml after 48 hr by cup-plate method; settings: MTCC 1430, 48 h, read-out: DIZ
# Aspergillus niger [7] = assay: Antifungal activity against Aspergillus niger MTCC 2546 after 24 to 48 hr by tube dilution method
# Pseudomonas fluorescens [8] = assay: Antibacterial activity against Pseudomonas fluorescens MTCC 2421 after 24 to 48 hr by tube dilution method
# Micrococcus luteus [9] = assay: Antibacterial activity against Micrococcus luteus MTCC 1538 at 500 ug/ml after 48 hr by cup-plate method; settings: MTCC 1538, 48 h, read-out: DIZ
# Micrococcus luteus [10] = assay: Antibacterial activity against Micrococcus luteus MTCC 1538 at 1000 ug/ml after 48 hr by cup-plate method; settings: MTCC 1538, 48 h, read-out: DIZ
# Staphylococcus aureus [11] = assay: Antibacterial activity against Staphylococcus aureus MTCC 1430 at 1250 ug/ml after 48 hr by cup-plate method; settings: MTCC 1430, 48 h, read-out: DIZ
# Bacillus subtilis [12] = assay: Antibacterial activity against Bacillus subtilis MTCC 441 after 24 to 48 hr by tube dilution method
# Staphylococcus aureus [13] = assay: Antibacterial activity against Staphylococcus aureus MTCC 1430 at 250 ug/ml after 48 hr by cup-plate method; settings: MTCC 1430, 48 h, read-out: DIZ
# Penicillium chrysogenum [14] = assay: Antifungal activity against Penicillium chrysogenum MTCC 161 at 500 ug/ml after 48 hr by cup-plate method; settings: MTCC 161, 48 h, read-out: DIZ
# Aspergillus niger [15] = assay: Antifungal activity against Aspergillus niger MTCC 2546 at 1000 ug/ml after 48 hr by cup-plate method; settings: MTCC 2546, 48 h, read-out: DIZ
# Bacillus pumilus [16] = assay: Antibacterial activity against Bacillus pumilus MTCC 1456 at 1250 ug/ml after 48 hr by cup-plate method; settings: MTCC 1456, 48 h, read-out: DIZ
# Bacillus pumilus [17] = assay: Antibacterial activity against Bacillus pumilus MTCC 1456 at 500 ug/ml after 48 hr by cup-plate method; settings: MTCC 1456, 48 h, read-out: DIZ
# Escherichia coli [18] = assay: Antibacterial activity against Escherichia coli MTCC 1573 after 24 to 48 hr by tube dilution method
# Bacillus subtilis [19] = assay: Antibacterial activity against Bacillus subtilis MTCC 441 at 750 ug/ml after 48 hr by cup-plate method; settings: MTCC 441, 48 h, read-out: DIZ
# Pseudomonas aeruginosa [20] = assay: Antibacterial activity against Pseudomonas aeruginosa MTCC 424 at 100 ug/ml after 48 hr by cup-plate method; settings: MTCC 424, 48 h, read-out: DIZ
# Micrococcus luteus [21] = assay: Antibacterial activity against Micrococcus luteus MTCC 1538 at 250 ug/ml after 48 hr by cup-plate method; settings: MTCC 1538, 48 h, read-out: DIZ
# Pseudomonas fluorescens [22] = assay: Antibacterial activity against Pseudomonas fluorescens MTCC 2421 at 1250 ug/ml after 48 hr by cup-plate method; settings: MTCC 2421, 48 h, read-out: DIZ
# Bacillus pumilus [23] = assay: Antibacterial activity against Bacillus pumilus MTCC 1456 at 100 ug/ml after 48 hr by cup-plate method; settings: MTCC 1456, 48 h, read-out: DIZ
# Bacillus subtilis [24] = assay: Antibacterial activity against Bacillus subtilis MTCC 441 at 100 ug/ml after 48 hr by cup-plate method; settings: MTCC 441, 48 h, read-out: DIZ
# Pseudomonas aeruginosa [25] = assay: Antibacterial activity against Pseudomonas aeruginosa MTCC 424 at 1250 ug/ml after 48 hr by cup-plate method; settings: MTCC 424, 48 h, read-out: DIZ
# Pseudomonas fluorescens [26] = assay: Antibacterial activity against Pseudomonas fluorescens MTCC 2421 at 500 ug/ml after 48 hr by cup-plate method; settings: MTCC 2421, 48 h, read-out: DIZ
# Escherichia coli [27] = assay: Antibacterial activity against Escherichia coli MTCC 1573 at 250 ug/ml after 48 hr by cup-plate method; settings: MTCC 1573, 48 h, read-out: DIZ
# Micrococcus luteus [28] = assay: Antibacterial activity against Micrococcus luteus MTCC 1538 at 750 ug/ml after 48 hr by cup-plate method; settings: MTCC 1538, 48 h, read-out: DIZ
smiles,measurement,setting,value
O=[N+]([O-])c1ccc(C2CC(c3cccc4ccccc34)=NN2c2ccc([N+](=O)[O-])cc2[N+](=O)[O-])cc1 (stereo not drawn),zone of inhibition at 750 µg/mL,Escherichia coli [1],12 mm
same,zone of inhibition at 1000 µg/mL,Staphylococcus aureus [2],12 mm
same,zone of inhibition at 1250 µg/mL,Penicillium chrysogenum [3],26 mm
same,MIC,Penicillium chrysogenum [4],50 µg/mL
same,zone of inhibition at 1250 µg/mL,Escherichia coli [5],17 mm
same,zone of inhibition at 750 µg/mL,Staphylococcus aureus [6],10 mm
same,MIC,Aspergillus niger [7],150 µg/mL
same,MIC,Pseudomonas fluorescens [8],150 µg/mL
same,zone of inhibition at 500 µg/mL,Micrococcus luteus [9],10 mm
same,zone of inhibition at 1000 µg/mL,Micrococcus luteus [10],12 mm
same,zone of inhibition at 1250 µg/mL,Staphylococcus aureus [11],14 mm
same,MIC,Bacillus subtilis [12],50 µg/mL
same,zone of inhibition at 250 µg/mL,Staphylococcus aureus [13],8 mm
same,zone of inhibition at 500 µg/mL,Penicillium chrysogenum [14],18 mm
same,zone of inhibition at 1000 µg/mL,Aspergillus niger [15],21 mm
same,zone of inhibition at 1250 µg/mL,Bacillus pumilus [16],24 mm
same,zone of inhibition at 500 µg/mL,Bacillus pumilus [17],18 mm
same,MIC,Escherichia coli [18],150 µg/mL
same,zone of inhibition at 750 µg/mL,Bacillus subtilis [19],14 mm
same,zone of inhibition at 100 µg/mL,Pseudomonas aeruginosa [20],10 mm
same,zone of inhibition at 250 µg/mL,Micrococcus luteus [21],9 mm
same,zone of inhibition at 1250 µg/mL,Pseudomonas fluorescens [22],25 mm
same,zone of inhibition at 100 µg/mL,Bacillus pumilus [23],10 mm
same,zone of inhibition at 100 µg/mL,Bacillus subtilis [24],11 mm
same,zone of inhibition at 1250 µg/mL,Pseudomonas aeruginosa [25],17 mm
same,zone of inhibition at 500 µg/mL,Pseudomonas fluorescens [26],18 mm
same,zone of inhibition at 250 µg/mL,Escherichia coli [27],10 mm
same,zone of inhibition at 750 µg/mL,Micrococcus luteus [28],11 mm
